Data from patent US20240158438A1, “POLYPEPTIDE COMPOUND AND APPLICATION THEREOF” (CHENGDU SINTANOVO BIOTECHNOLOGY CO., LTD., priority 2021, published 2024).
Starred links: 1 amine or outer side, 2 acyl side, 3 side chain; linkers in the order of their positions; H or OH if unused. Non-standard residues stand in square brackets, D forms with d. Residues, ends and D or L forms follow the SMILES beside them. *: point of attachment. Azetidine3carboxylic = O=C(C1CN([*:1])C1)[*:2]; Pyrrolidine3carbonyl(3S) = O=C([C@H]1CCNC1)*; dBta = N[C@H](Cc1csc2ccccc12)C(=O)O; dTle = CC(C)(C)[C@@H](N)C(=O)O; Ac4c(3-oxa) = NC1(C(=O)O)COC1; Tle = CC(C)(C)[C@H](N)C(=O)O; X1 = N[C@H]1CCC[C@H]1C(=O)*; X3 = NCC1(C(=O)*)CCC1

Tests used:
GHSR-1a = GHSR-1a (Homo sapiens (Human), UniProt Q92847); assay: Agonistic activity for GHSR-1a, FLIPR calcium assay; format: cell-based; details: agonist activity assay, Flp In-CHO-GHSR Stable Pool cells, FLIPR calcium 6 kit; read-out: The activity (IC50) of polypeptide compounds for GHSR-1a
Chain of GHSR-1a (Q92847 whole entry): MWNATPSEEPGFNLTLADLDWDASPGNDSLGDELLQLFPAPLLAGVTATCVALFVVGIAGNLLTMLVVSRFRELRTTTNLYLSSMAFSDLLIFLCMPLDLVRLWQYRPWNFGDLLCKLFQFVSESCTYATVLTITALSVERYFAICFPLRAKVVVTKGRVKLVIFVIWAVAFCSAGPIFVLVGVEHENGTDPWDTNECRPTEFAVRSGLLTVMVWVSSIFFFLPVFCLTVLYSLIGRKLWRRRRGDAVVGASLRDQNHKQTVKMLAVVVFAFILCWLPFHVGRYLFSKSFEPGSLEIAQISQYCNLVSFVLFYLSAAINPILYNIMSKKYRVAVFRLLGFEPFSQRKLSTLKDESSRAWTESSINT

CYP1A2 = CYP1A2 (Homo sapiens (Human), UniProt P05177); assay: in vitro; format: in vitro ADME; details: microsomes; for IC50: 10 min
Chain of CYP1A2 (P05177 whole entry): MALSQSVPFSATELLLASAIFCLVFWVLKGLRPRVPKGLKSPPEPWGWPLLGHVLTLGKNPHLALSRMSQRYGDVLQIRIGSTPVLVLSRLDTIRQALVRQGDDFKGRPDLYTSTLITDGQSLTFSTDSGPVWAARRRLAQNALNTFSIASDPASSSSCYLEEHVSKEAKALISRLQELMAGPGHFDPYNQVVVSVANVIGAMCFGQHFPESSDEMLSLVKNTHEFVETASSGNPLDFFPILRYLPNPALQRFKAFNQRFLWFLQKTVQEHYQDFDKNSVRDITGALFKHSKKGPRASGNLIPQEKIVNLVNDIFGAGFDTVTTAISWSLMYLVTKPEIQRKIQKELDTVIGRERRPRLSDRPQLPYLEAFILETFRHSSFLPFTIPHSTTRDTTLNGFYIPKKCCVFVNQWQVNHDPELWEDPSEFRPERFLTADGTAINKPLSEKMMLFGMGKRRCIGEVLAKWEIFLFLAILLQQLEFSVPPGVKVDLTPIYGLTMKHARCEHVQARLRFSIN
Experimental: (§1) Human liver microsomes containing cytochrome P450 (0.253 mg/mL protein) were incubated with test compounds (0.05-50 μM), CYPs substrates (10 μM […], 5 μM diclofenac, 30 μM mephenytoin, 5 μM dextromethorphan hydrobromide and 2 μM midazolam) and 1.0 mM NADP at 37° C. for 10 min. Naphthoflavone, sulfaphenazole, N-3-benzylnirvanol, quinidine and ketoconazole were used as reference inhibitors.

CYP 2C19 = CYP 2C19 (Homo sapiens (Human), UniProt P33261); format: in vitro ADME; details: microsomes, 10 min
Chain of CYP 2C19 (P33261 whole entry): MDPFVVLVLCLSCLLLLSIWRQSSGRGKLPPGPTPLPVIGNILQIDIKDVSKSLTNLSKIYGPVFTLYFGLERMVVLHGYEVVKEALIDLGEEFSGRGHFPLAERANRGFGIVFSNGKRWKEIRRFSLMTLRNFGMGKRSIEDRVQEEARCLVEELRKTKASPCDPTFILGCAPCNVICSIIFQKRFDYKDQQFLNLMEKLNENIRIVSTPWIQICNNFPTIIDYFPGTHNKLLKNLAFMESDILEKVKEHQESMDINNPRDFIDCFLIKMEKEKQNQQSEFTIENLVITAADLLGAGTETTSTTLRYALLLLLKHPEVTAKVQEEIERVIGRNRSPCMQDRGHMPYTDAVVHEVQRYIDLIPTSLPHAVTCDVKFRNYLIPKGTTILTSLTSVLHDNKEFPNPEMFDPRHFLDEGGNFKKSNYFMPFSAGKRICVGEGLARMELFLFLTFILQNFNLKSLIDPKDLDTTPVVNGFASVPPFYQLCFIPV
Experimental: as §1

CYP 2C9 = CYP 2C9 (Homo sapiens (Human), UniProt P11712); format: in vitro ADME; details: microsomes, 10 min
Chain of CYP 2C9 (P11712 whole entry): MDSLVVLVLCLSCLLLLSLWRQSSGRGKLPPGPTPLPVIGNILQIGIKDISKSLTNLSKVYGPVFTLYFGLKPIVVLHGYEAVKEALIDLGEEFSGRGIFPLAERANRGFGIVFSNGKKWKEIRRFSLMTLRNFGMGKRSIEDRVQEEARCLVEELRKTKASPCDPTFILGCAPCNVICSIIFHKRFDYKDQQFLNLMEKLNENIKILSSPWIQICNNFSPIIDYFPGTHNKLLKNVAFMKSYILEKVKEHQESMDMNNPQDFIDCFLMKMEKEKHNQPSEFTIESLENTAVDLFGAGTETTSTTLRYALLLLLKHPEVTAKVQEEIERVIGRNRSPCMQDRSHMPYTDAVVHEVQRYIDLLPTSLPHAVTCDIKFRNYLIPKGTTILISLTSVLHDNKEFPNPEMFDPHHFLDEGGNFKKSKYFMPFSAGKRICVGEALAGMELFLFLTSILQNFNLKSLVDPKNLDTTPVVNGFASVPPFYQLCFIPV
Experimental: as §1

CYP 2D6 = CYP 2D6 (Homo sapiens (Human), UniProt P10635); format: in vitro ADME; details: microsomes, 10 min
Chain of CYP 2D6 (P10635 whole entry): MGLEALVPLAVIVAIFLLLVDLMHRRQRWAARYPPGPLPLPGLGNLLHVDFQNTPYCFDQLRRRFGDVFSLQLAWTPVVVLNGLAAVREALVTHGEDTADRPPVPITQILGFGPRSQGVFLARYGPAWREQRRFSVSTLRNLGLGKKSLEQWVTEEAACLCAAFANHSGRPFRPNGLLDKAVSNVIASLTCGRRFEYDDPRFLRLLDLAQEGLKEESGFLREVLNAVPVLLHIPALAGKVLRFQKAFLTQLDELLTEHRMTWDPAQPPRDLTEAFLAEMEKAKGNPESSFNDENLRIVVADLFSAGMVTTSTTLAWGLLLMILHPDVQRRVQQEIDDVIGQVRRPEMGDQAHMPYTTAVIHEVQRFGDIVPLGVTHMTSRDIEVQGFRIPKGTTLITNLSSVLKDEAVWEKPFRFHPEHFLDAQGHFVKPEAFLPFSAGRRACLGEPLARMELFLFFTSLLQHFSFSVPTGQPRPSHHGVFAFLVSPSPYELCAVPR
Experimental: as §1

CYP 3A4 = CYP 3A4 (Homo sapiens (Human), UniProt P08684); format: in vitro ADME; details: microsomes, 10 min
Chain of CYP 3A4 (P08684 whole entry): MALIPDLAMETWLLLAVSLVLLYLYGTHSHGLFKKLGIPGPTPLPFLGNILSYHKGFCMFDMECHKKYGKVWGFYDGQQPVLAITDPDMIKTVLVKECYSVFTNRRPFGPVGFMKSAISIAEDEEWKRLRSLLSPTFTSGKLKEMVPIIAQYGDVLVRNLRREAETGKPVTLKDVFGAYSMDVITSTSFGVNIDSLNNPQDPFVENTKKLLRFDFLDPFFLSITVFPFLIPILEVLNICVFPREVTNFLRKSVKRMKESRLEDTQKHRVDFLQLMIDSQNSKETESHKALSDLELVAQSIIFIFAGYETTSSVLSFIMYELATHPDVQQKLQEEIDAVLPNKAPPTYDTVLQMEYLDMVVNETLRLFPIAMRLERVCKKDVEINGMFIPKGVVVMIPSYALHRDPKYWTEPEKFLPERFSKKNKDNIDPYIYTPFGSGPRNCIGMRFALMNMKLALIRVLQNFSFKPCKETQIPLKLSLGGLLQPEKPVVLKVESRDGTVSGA
Experimental: as §1

| IC50 (GHSR-1a) | IC50 (CYP1A2) | IC50 (CYP 2C19) | IC50 (CYP 2C9) | IC50 (CYP 2D6) | IC50 (CYP 3A4) | IC50 at 10 min (CYP1A2) | Compound |
| --- | --- | --- | --- | --- | --- | --- | --- |
| 0.0107 µM | > 50 µM | > 50 µM | > 50 µM | > 50 µM | > 50 µM |  | CC(C)(C)[C@@H](N)C(=O)N[C@H](Cc1csc2ccccc12)C(=O)N[C@H](Cc1c[nH]c2ccccc12)C(=O)N[C@@H](Cc1ccccc1)C(=O)N[C@H](CCCCN)C(N)=O [Compound 47] (H-[dTle][dBta][dW]F[dK]-NH2) |
| 0.0121 µM | > 50 µM | > 50 µM | > 50 µM | > 50 µM | > 50 µM |  | CC(C)(C)[C@H](N)C(=O)N[C@H](Cc1csc2ccccc12)C(=O)N[C@H](Cc1c[nH]c2ccccc12)C(=O)N[C@@H](Cc1ccccc1)C(=O)N[C@H](CCCCN)C(N)=O [Compound 48] (H-[Tle][dBta][dW]F[dK]-NH2) |
| 0.0032 µM | > 50 µM | > 50 µM | > 50 µM | > 50 µM | > 50 µM |  | NCCCC[C@@H](NC(=O)[C@H](Cc1ccccc1)NC(=O)[C@@H](Cc1c[nH]c2ccccc12)NC(=O)[C@@H](Cc1csc2ccccc12)NC(=O)[C@@H]1CCC[C@@H]1N)C(N)=O [Compound 51] (X1-[dBta][dW]F[dK]-NH2) |
| 0.0038 µM | > 50 µM | > 50 µM | > 50 µM | > 50 µM | > 50 µM |  | NCCCC[C@@H](NC(=O)[C@H](Cc1ccccc1)NC(=O)[C@@H](Cc1c[nH]c2ccccc12)NC(=O)[C@@H](Cc1csc2ccccc12)NC(=O)C1(CN)CCC1)C(N)=O [Compound 52] (X3-[dBta][dW]F[dK]-NH2) |
| 0.0112 µM | > 50 µM | > 50 µM | > 50 µM | > 50 µM | > 50 µM |  | NCCCC[C@@H](NC(=O)[C@H](Cc1ccccc1)NC(=O)[C@@H](Cc1c[nH]c2ccccc12)NC(=O)[C@@H](Cc1csc2ccccc12)NC(=O)C1CNC1)C(N)=O [Compound 53] (Azetidine3carboxylic-[dBta][dW]F[dK]-NH2) |
| 0.0139 µM | > 50 µM | > 50 µM | > 50 µM | > 50 µM | > 50 µM |  | NCCCC[C@@H](NC(=O)[C@H](Cc1ccccc1)NC(=O)[C@@H](Cc1c[nH]c2ccccc12)NC(=O)[C@@H](Cc1csc2ccccc12)NC(=O)C1(N)COC1)C(N)=O [Compound 54] (H-[Ac4c(3-oxa)][dBta][dW]F[dK]-NH2) |
| 0.0055 µM | > 50 µM | > 50 µM | > 50 µM | > 50 µM | > 50 µM |  | NCCCC[C@@H](NC(=O)[C@H](Cc1ccccc1)NC(=O)[C@@H](Cc1c[nH]c2ccccc12)NC(=O)[C@@H](Cc1csc2ccccc12)NC(=O)[C@H]1CCNC1)C(N)=O [Compound 56] ({Pyrrolidine3carbonyl(3S)}-[dBta][dW]F[dK]-NH2) |
| 0.0033 µM |  | > 50 µM | > 50 µM | > 50 µM | > 50 µM | > 50 µM | NC(=O)[C@H](Cc1ccccc1)NC(=O)[C@@H](Cc1c[nH]c2ccccc12)NC(=O)[C@@H](Cc1csc2ccccc12)NC(=O)[C@@H]1CCC[C@@H]1N [Compound 71] |
| 0.004 µM |  | > 50 µM | > 50 µM | > 50 µM | > 50 µM | > 50 µM | NCC1(C(=O)N[C@H](Cc2csc3ccccc23)C(=O)N[C@H](Cc2c[nH]c3ccccc23)C(=O)N[C@@H](Cc2ccccc2)C(N)=O)CCC1 [Compound 72] |
| 0.0039 µM |  | > 50 µM | > 50 µM | > 50 µM | > 50 µM | > 50 µM | NC(=O)[C@H](Cc1ccccc1)NC(=O)[C@@H](Cc1c[nH]c2ccccc12)NC(=O)[C@@H](Cc1csc2ccccc12)NC(=O)[C@H]1CCNC1 [Compound 76] |
| 0.0136 µM |  | > 50 µM | > 50 µM | > 50 µM | > 50 µM | > 50 µM | NC(=O)[C@H](Cc1ccccc1)NC(=O)[C@@H](Cc1c[nH]c2ccccc12)NC(=O)[C@@H](Cc1csc2ccccc12)NC(=O)[C@H]1CNCCO1 [Compound 77] |
| 0.0351 µM |  | > 50 µM | > 50 µM | > 50 µM | > 50 µM | > 50 µM | NC(=O)[C@H](Cc1ccccc1)NC(=O)[C@@H](Cc1c[nH]c2ccccc12)NC(=O)[C@@H](Cc1csc2ccccc12)NC(=O)[C@@]12CNC[C@@H]1C2 [Compound 80] |
